For data set [1] the following is noted: preclinical studies (Willis et al. 2010; Hadera et al. 2014); cited from earlier work.
The conditions of data set [2]: clinical trials, e.g., NCT01379625 and NCT01993186 (Vockley et al. 2017); cited from earlier work.
The subject of data set [3] is germline Gpt2-null mice. In words: Dietary supplementation of germline Gpt2-null mice: survival and phenotype. It is filed as in vivo, mouse. The source says: Vertebrate animal assays. The assays use a wild-type mouse line and a genetically modified mouse line (i.e., germline Gpt2-null line). A person having ordinary skill in the biomedical art can perform these assays following the procedures in protocol 18-11-0002, approved by the Brown University Institutional Animal Care and Use Committee (IACUC). All animals used in assays described in this specification were housed at the Brown University Animal Care Facility.
Rescue of motor phenotype in vivo with dietary modifications. Synthesis of alanine in the brain is prominently deficient in Gpt2-null animals. An overriding hypothesis (OH1) is that, in the absence of GPT2, alanine changes from a non-essential amino acid to an essential amino acid in neurons, and neuronal alanine deficiency impedes protein synthesis and neuronal growth. The inventors determined there is an anaplerotic defect in Gpt2-null brains (OH2). The inventors are attempting to rescue animal survival, weight gain, and health of the motor system by alanine supplementation, anaplerotic supplementation, and the combination. […] The inventors are testing the extent to which other phenotypic aspects, particularly related to motor defects, are ameliorated by alanine supplementation over time with and without anaplerotic supplementation. The inventors also investigate the requirement for exogenous dietary alanine by removing alanine from the diet of Gpt2-null animals.
Alanine supplementation: Littermate germline Gpt2-null and wild-type animals are fed either high-alanine diet (5% by weight), alanine-deprived diet (0%), or standard chow (1.2%). The formulations generated by Envigo are fed to breeding pairs, pregnant mothers, and pups, based on prior studies by Battaglia & Regnault, Placenta, 22, 145-161 (2001). Food is provided ad libitum. Therefore, newborn Gpt2-mutant pups are receiving the diet throughout gestation and from birth onward. […] The inventors measured alanine in peripheral blood and brain tissue by metabolomics. […]

For data set [4] the following is noted: in vivo; cited from earlier work.

Entries after “also recorded” stand apart in the source; their conditions may differ.

`CCCCCCC(=O)OCC(COC(=O)CCCCCC)OC(=O)CCCCCC` [triheptanoin, reference compound]: the antiseizure effects entry in data set [1] was “has antiseizure effects”. In addition, the tolerability result in data set [2] is “well tolerated”.

Turning to `C[C@H](N)C(=O)O` [alanine], the “effect on survival of germline Gpt2-null animals (in words)” value in data set [3] (alanine supplementation / high-alanine diet, preliminary work) is “impact; also recorded: improves the survival”. Moreover, in data set [3] (dietary supplementation in development, preliminary data), the “effect on phenotype in the mouse model of Gpt2 disease (in words)” value is recorded as “benefited; also recorded: partially ameliorates the phenotype”. Moreover, in data set [3] (supplemental dietary alanine to pregnant and lactating mothers and pups, freely feeding, vs. 0% on standard chow, p<0.0001, log-rank (Mantel-Cox) test), the “survival of germline Gpt2-null pups beyond weaning” value is listed as 36.7%. Moreover, in data set [4], the “crosses the blood-brain barrier” value is listed as “crosses the blood-brain barrier”.

Values taken from patent US12390436B1, “Mutations in mitochondrial enzyme GPT2 cause metabolic dysfunction and neurological disease with developmental and progressive features” (priority 2020, dated 2025).
